Laboratory results from article PMC6155628 (Molecules : A Journal of Synthetic Chemistry and Natural …, 2017).
Like-named read-outs stand apart in the source and are kept apart here. Residues, ends and D or L forms follow the SMILES beside them.

Columns and labels:
[1] = biological target: Angiotensin converting enzyme (ACE) (Homo sapiens, UniProt P12821); assay: biochemical
[2] = tested on: spontaneously hypertensive rats (SHR); details: oral, dose not given, 4 h after administration, tail-cuff, n = 6
SHR = details: cited from earlier work
ACE = details: read-out: IC50 (ACE inhibition), cited from earlier work
[3] = tested on: Ehrlich ascites sarcoma cells; details: Ehrlich ascites sarcoma cells in mice; cited from earlier work
Source text: Adlay seed (soft-shelled Job’s tears, Coix larchryma-jobi L. var. ma-yuen Stapf) has been used in traditional Chinese medicine and has been a nourishing food for more than a thousand years. It has been used to treat warts, chapped skin, rheumatism, neuralgia, hypertension as well as being an anti-inflammatory and anticancer agent. An increasing effort had been concentrated on finding active components from adlay. […] The main ingredient of ...

[4] = from haruan myofibrillar protein hydrolysate (proteinase K and thermolysin)

Angiotensin converting enzyme (ACE), sequence (P12821 30-1306, species assumed): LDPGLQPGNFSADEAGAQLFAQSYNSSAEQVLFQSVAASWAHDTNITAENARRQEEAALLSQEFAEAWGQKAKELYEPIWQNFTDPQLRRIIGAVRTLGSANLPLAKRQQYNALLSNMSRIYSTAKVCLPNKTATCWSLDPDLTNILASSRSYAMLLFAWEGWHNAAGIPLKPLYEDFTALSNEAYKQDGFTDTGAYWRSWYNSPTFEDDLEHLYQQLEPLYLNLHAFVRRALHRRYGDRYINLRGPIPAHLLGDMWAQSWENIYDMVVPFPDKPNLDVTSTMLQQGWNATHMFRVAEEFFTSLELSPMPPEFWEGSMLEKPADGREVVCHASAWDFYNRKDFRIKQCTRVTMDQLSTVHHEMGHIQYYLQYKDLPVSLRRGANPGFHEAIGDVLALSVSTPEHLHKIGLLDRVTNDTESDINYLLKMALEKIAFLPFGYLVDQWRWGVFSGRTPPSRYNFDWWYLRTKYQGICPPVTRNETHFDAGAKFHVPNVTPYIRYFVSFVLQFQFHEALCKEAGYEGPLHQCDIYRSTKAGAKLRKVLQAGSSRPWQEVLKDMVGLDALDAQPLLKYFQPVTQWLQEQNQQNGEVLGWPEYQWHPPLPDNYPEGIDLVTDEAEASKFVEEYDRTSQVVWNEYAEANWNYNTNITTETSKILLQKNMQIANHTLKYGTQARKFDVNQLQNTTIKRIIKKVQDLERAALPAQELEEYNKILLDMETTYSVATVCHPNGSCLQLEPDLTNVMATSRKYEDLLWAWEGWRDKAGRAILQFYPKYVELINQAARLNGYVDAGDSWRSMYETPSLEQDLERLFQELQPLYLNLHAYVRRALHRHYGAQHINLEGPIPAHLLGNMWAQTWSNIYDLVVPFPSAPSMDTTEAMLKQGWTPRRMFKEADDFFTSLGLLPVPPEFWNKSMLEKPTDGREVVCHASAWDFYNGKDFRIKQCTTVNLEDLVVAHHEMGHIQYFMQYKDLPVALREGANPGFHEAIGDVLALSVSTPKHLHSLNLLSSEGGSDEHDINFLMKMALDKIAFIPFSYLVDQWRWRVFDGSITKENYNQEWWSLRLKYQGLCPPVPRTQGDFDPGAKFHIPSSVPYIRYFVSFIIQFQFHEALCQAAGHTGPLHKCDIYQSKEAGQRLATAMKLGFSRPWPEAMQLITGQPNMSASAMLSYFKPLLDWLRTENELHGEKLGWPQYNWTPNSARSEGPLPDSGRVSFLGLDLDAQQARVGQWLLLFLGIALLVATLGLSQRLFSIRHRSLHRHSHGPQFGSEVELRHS

Compound `C[C@H](NC(=O)CN)C(=O)N[C@@H](C)C(=O)NCC(=O)NCC(=O)N[C@@H](C)C(=O)N[C@@H](Cc1ccccc1)C(=O)O` [GAAGGAF] (H-GAAGGAF-OH) has an IC50 [1] of 14.2 µM.

In the case of `C[C@H](CS)C(=O)N1CCC[C@H]1C(=O)O` [captopril], the “Maximal decrease of SBP, positive control” value [2] is reported as “approximately 28.17 mmHg”.

For AAATP, the “Decrease of SBP” value (SHR; SHRs, after 8 h administration, from Spanish dry-cured ham) is listed as “around 25.62 mmHg”.

For AWLHPGAPKVF, the Antihypertensive duration (SHR; single oral, 10 mg/kg) is listed as 8 h and the “Reduction of SBP” value (SHR; single oral, 10 mg/kg, from P. esculenta protein hydrolysate) is listed as “around 30 mmHg”.

In the case of Ala-Tyr, the IC50 (ACE; from corn gluten meal) is given as 14.2 µM.

In the case of NGTWFEPP, the IC50 (ACE; [4]) is listed as 0.63 µM.

For VPAAPPK, the IC50 (ACE; [4]) is listed as 0.45 µM.

For coixenolide [coixenolide (I)], the Growth-inhibiting activity [3] is given as “growth-inhibiting activity”.
